Source: US20210269434A1, “TRICYCLIC COMPOUNDS AS INHIBITORS OF KRAS” (Incyte Corporation, priority 2020, published 2021)

How the values were obtained:
[1] = system: MIA PaCa-2 (KRAS G12C) cells; assay: Cellular pERK HTRF assay (KRAS_G12C pERK); assay type: cell-based, human; settings: Homo sapiens, MIA PaCa-2, 4 hours incubation, read-out: G12C_pERK
Outline: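 MIA PaCa-2 cells plated overnight, then exposed to compound for 4 h at 37 °C (G12C compounds). Phospho-ERK1/2 measured in lysates by HTRF (665/620 nm) after overnight antibody incubation; IC50 from percent inhibition versus log concentration.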

[2] = target: KRAS G12C (Homo sapiens, UniProt P01116, G12C); assay: GDP-GTP exchange assay (KRAS_G12C exchange); assay type: biochemical; settings: bodipy-GDP loaded KRAS G12C 2.5 nM, SOS1 150 nM, GppNHp; 2 hours pre-incubation, 2 hours reaction; read-out: G12C_exchange
KRAS G12C, sequence (P01116 1-188 isoform P01116-2 G12C): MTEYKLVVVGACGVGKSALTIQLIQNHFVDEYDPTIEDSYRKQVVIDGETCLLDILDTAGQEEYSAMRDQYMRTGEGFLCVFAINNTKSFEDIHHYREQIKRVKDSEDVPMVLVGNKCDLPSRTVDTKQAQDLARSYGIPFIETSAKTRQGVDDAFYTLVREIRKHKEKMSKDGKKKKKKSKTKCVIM
Outline: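 Fluorescence exchange of bodipy-GDP for GppNHp, SOS1-driven, read at 485/520 nm; IC50 from four-parameter variable-slope fit. Both mutants used 2.5 nM final labelled protein and a 2 h compound pre-incubation. G12C reaction had 500 uM GppNHp and 150 nM SOS1 for 2 h; G12D ran 4 h.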

SMILES	IC50 [1]	IC50 [2]
C=CC(=O)N1CC[C@H](n2cnc3c(N4CC(N(C)C)C4)nc4c(F)c(-c5cc(O)ccc5F)c(Cl)cc4c32)C[C@H]1CC#N [Example 55, 2-((2S,4S)-1-acryloyl-4-(8-chloro-4-(3-(dimethylamino)azetidin-1-yl)-6-fluoro-7-(2-fluoro-5-hydroxyphenyl)-1H-imidazo[4,5-c]quinolin-1-yl)piperidin-2-yl)acetonitrile]	≤ 100 nM	≤ 100 nM
C=CC(=O)N1CC[C@H](n2cnc3c(N4CC(N(C)C)C4)nc4c(F)c(-c5ccccc5F)c(Cl)cc4c32)C[C@H]1CC#N [Example 56, 2-((2S,4S)-1-acryloyl-4-(8-chloro-4-(3-(dimethylamino)azetidin-1-yl)-6-fluoro-7-(2-fluorophenyl)-1H-imidazo[4,5-c]quinolin-1-yl)piperidin-2-yl)acetonitrile]	≤ 100 nM	≤ 100 nM
C=CC(=O)N1CC[C@H](n2cnc3c(N4CC(N(C)C)C4)nc4c(F)c(-c5ccccc5Cl)c(Cl)cc4c32)C[C@H]1CC#N [Example 57, 2-((2S,4S)-1-acryloyl-4-(8-chloro-7-(2-chlorophenyl)-4-(3-(dimethylamino)-azetidin-1-yl)-6-fluoro-1H-imidazo[4,5-c]quinolin-1-yl)piperidin-2-yl)acetonitrile]	≤ 100 nM	≤ 100 nM
C=CC(=O)N1CC[C@H](n2cnc3c(N4CC(N(C)C)C4)nc4c(F)c(-c5cccc(F)c5Cl)c(Cl)cc4c32)C[C@H]1CC#N [Example 58, 2-((2S,4S)-1-acryloyl-4-(8-chloro-7-(2-chloro-3-fluorophenyl)-4-(3-(dimethyl-amino)azetidin-1-yl)-6-fluoro-1H-imidazo[4,5-c]quinolin-1-yl)piperidin-2-yl)acetonitrile]	≤ 100 nM	≤ 100 nM
C=CC(=O)N1CC[C@H](n2cnc3c(N4CC(N(C)C)C4)nc4c(F)c(-c5ccc(C)cc5C)c(Cl)cc4c32)C[C@H]1CC#N [Example 59, 2-((2S,4S)-1-acryloyl-4-(8-chloro-4-(3-(dimethylamino)azetidin-1-yl)-7-(2,4-dimethylphenyl)-6-fluoro-1H-imidazo[4,5-c]quinolin-1-yl)piperidin-2-yl)acetonitrile]	≤ 100 nM	≤ 100 nM
C=CC(=O)N1CC[C@H](n2cnc3c(N4CC(N(C)C)C4)nc4c(F)c(-c5cc(C)ccc5C)c(Cl)cc4c32)C[C@H]1CC#N [Example 60, 2-((2S,4S)-1-acryloyl-4-(8-chloro-4-(3-(dimethylamino)azetidin-1-yl)-7-(2,5-dimethylphenyl)-6-fluoro-1H-imidazo[4,5-c]quinolin-1-yl)piperidin-2-yl)acetonitrile]	≤ 100 nM	≤ 100 nM
C=CC(=O)N1CC[C@H](n2cnc3c(N4CC(N(C)C)C4)nc4c(F)c(-c5cccc(Cl)c5C)c(Cl)cc4c32)C[C@H]1CC#N [Example 61, 2-((2S,4S)-1-acryloyl-4-(8-chloro-7-(3-chloro-2-methylphenyl)-4-(3-(dimethyl-amino)azetidin-1-yl)-6-fluoro-1H-imidazo[4,5-c]quinolin-1-yl)piperidin-2-yl)acetonitrile]	≤ 100 nM	≤ 100 nM
C=CC(=O)N1C[C@H](n2cnc3c(N4CC(N(C)C)C4)nc4c(F)c(-c5cccc(C)c5C)c(Cl)cc4c32)C[C@@H]1CC#N [Example 62, 2-((2R,4R)-1-acryloyl-4-(8-chloro-4-(3-(dimethylamino)azetidin-1-yl)-7-(2,3-dimethylphenyl)-6-fluoro-1H-imidazo[4,5-c]quinolin-1-yl)pyrrolidin-2-yl)acetonitrile]	≤ 100 nM	≤ 100 nM
C=CC(=O)N1C[C@H](n2cnc3c(N4CC(N(C)C)C4)nc4c(F)c(-c5cccc6ccccc56)c(Cl)cc4c32)C[C@@H]1CC#N [Example 63, 2-((2R,4R)-1-acryloyl-4-(8-chloro-4-(3-(dimethylamino)azetidin-1-yl)-6-fluoro-7-(naphthalen-1-yl)-1H-imidazo[4,5-c]quinolin-1-yl)pyrrolidin-2-yl)acetonitrile]	≤ 100 nM	≤ 100 nM
